Holding throughout (assay type): cell-based, human
The test system of experiment [1] is hNPC (Bulk). In words: Expression of NPC markers SIX2 and OSR1 in subcultured hNPC (Bulk). As to conditions: 3 nM in CFY medium, subculture of hNPC (Bulk). Here is the method: A cell mass of the human iPS cell-derived NPC (hNPC) cultured in the test medium was transferred to a 1.5 ml tube, the supernatant was removed completely, 30 μL of Accumax (Innovative Cell Technologies, Inc.) was added, and the resultant was left to stand for 10 minutes in an incubator at 37° C. and 5% CO2. After 10 minutes, the sample was suspended in 470 μL of 10% FBS, and the cell count was measured with a TC20 (Bio-Rad Laboratories, Inc.). The human iPS cell-derived NPC were suspended in the test medium and then used to inoculate a low-attachment 96-well plate (Nunc) in an amount of 2.0×10^4 cells per well. This low-attachment 96-well plate that had been inoculated with the cells was centrifuged at 300 g for 3 minutes, and the cells were then subjected to static culture in an incubator at 37° C. and 5% CO2. Then, 48 hours after starting this static culture, an additional 100 μL of the test medium was administered to each well. Subsequently, 48 hours after this additional administration, the above operations were repeated, with the cell count being measured and a subculture conducted.
(§1) Expression of OSR1 and SIX2 was confirmed by conducting a culture test using these human iPS cells, and detecting the respective fluorescence from the GFP and tdTomato using a fluorescence microscope. […]

Experiment [2] relates to hNPC (c-MET(+)). In words: Expression of NPC markers OSR1 and SIX2 in subcultured hNPC (c-MET(+)). As to conditions: 3 nM in CFY medium, subculture of hNPC (c-MET(+)). As to the method:
(§2) Ten μL of human-HGFR/c-MET antibody to which the fluorescent substance APC had been bound (FAB 3582A, R&D Systems Inc.) was added to 100 μL of the 2% FBS suspension of the induced hNPC cells prepared above, and the resultant was left to stand for 30 minutes on ice. After 30 minutes, the sample was centrifuged at 200 g for 5 minutes, the supernatant was removed, the residue was washed with 1 mL of PBS, and the sample was once again centrifuged at 200 g for 5 minutes and the supernatant removed. This operation was conducted twice. […]
(§3) A cell mass of the human iPS cell-derived NPC (hNPC) cultured in the test medium was transferred to a 1.5 ml tube, the supernatant was removed completely, 30 μL of Accumax (Innovative Cell Technologies, Inc.) was added, and the resultant was left to stand for 10 minutes in an incubator at 37° C. and 5% CO2. After 10 minutes, the sample was suspended in 470 μL of 10% FBS, and the cell count was measured with a TC20 (Bio-Rad Laboratories, Inc.). […] Subsequently, 48 hours after this additional administration, the above operations were repeated, with the cell count being measured and a subculture conducted.
as §1

Experiment [3] concerns hNPC (Bulk). Put plainly: Production of renal organoids from subcultured hNPC (Bulk). To be noted: 3 nM in CFY medium, cells of passage 2. As to the method: A cell mass of hNPC that had been subcultured in the test medium were placed in a Transwell (Corning), and the surrounding medium was removed. Next, the Transwell with the cell mass thereon was set in a culture dish that had been filled with 5% KSR (Kock-out Serum Replacement) (Thermo Fisher Scientific) to which 200 ng/mL of FGF2 and 5 μM of CHIR99021 had been added in advance. After 48 hours, the medium was replaced with 5% KSR containing no added growth factors or low-molecular weight compounds. Thereafter, the medium was replaced every 48 hours with fresh 5% KSR containing no added growth factors or low-molecular weight compounds, and on the 10th day after starting the differentiation culture, the cells were fixed for 3 hours at 4° C. using 4% PFA without removal from the Transwell. Following fixing, the medium was replaced with PBS, and after standing overnight at 4° C., immunostaining was conducted.
Bright field images of renal organoids were captured using either a KEYENCE BZ-X700 or a confocal microscope (Zeiss LSM710). Image analysis was performed using Image J version 1.51j8 (National Institutes of Health) (C. A. Schneider, et al., Nat Methods. 9 (2012) 671 to 675.).
Attempts were made to produce renal organoids from hNPC (Bulk) that had been subcultured using either the hNPSR medium or the CFY medium.

Experiment [4] concerns hNPC (c-MET(+)). Put plainly: Production of renal organoids from subcultured hNPC (c-MET(+)). To be noted: 3 nM in CFY medium, cells of passage 1. Here is the method:
Ten μL of human-HGFR/c-MET antibody to which the fluorescent substance APC had been bound (FAB 3582A, R&D Systems Inc.) was added to 100 μL of the 2% FBS suspension of the induced hNPC cells prepared above, and the resultant was left to stand for 30 minutes on ice. After 30 minutes, the sample was centrifuged at 200 g for 5 minutes, the supernatant was removed, the residue was washed with 1 mL of PBS, and the sample was once again centrifuged at 200 g for 5 minutes and the supernatant removed. This operation was conducted twice. The cells obtained following removal of the supernatant were suspended in DAPI that had been diluted 1,000-fold with 2% FBS, and following filtration through a 40 μm filter, flow cytometry was used to extract the c-MET-positive cells.
A cell mass of hNPC that had been subcultured in the test medium were placed in a Transwell (Corning), and the surrounding medium was removed. Next, the Transwell with the cell mass thereon was set in a culture dish that had been filled with 5% KSR (Kock-out Serum Replacement) (Thermo Fisher Scientific) to which 200 ng/mL of FGF2 and 5 μM of CHIR99021 had been added in advance. After 48 hours, the medium was replaced with 5% KSR containing no added growth factors or low-molecular weight compounds. […]

For experiment [5], the system named is hNPC (Bulk). In words: Cell growth (cell count, cumulative cell count) of hNPC (Bulk). As to conditions: 3 nM in CFY medium (CFY+TG(3)) vs CFY+DMSO. Here is the method:
The hNPC were suspended in 50 μL of a test medium in sufficient amount to achieve 2.0×10^4 cells per well, and the suspension was then used to inoculate a low-attachment 96-well plate (Nunc), and following centrifuging at 300 g for 3 minutes, the cells were subjected to a static culture in an incubator at 37° C. and 5% CO2. Six hours after starting the static culture, a cell mass had formed.
(§4) Subsequently, 48 hours after the start of the static culture, an additional 100 μL of the same medium as that used at the time of cell inoculation was administered to each well. […] After 10 minutes, the sample was suspended in 470 μL of 10% FBS, and the cell count was measured with a TC20 (Bio-Rad Laboratories, Inc.).
as §3, with “conducted. […]” for “conducted.”

The test system of experiment [6] is hNPC (c-MET(+)). Put plainly: Cell growth (cumulative cell count) in subculture of hNPC (c-MET(+)). To be noted: 3 nM in CFY medium vs CFY+DMSO. As to the method:
as §2, §4
A cell mass of the human iPS cell-derived NPC (hNPC) cultured in the test medium was transferred to a 1.5 ml tube, the supernatant was removed completely, 30 μL of Accumax (Innovative Cell Technologies, Inc.) was added, and the resultant was left to stand for 10 minutes in an incubator at 37° C. and 5% CO2. After 10 minutes, the sample was suspended in 470 μL of 10% FBS, and the cell count was measured with a TC20 (Bio-Rad Laboratories, Inc.). […]

Experiment [7] deals with hiPSC. Put plainly: Differentiation induction efficiency of SIX2-positive cells, hNPC from hiPSC (differentiation induction method B). Here is the method: <Method for Differentially Inducing hNPC from hiPSC (Differentiation Induction Method B)> • 1. Undifferentiated hiPSC were converted to single cells using a TrypLE Select Enzyme (Gibco), and then using a medium prepared using DMEM/F12 Glutamax (Invitrogen) supplemented with B27 as the basal medium and adding 1 μM of CHIR99021, 10 nM of retinoic acid, 1 ng/ml of BMP4, 100 ng/ml of FGF2, 10 μM of Y-27632 and iMatrix-511 (Nippi) to this basal medium, plating was conducted at a density within a range from 1.0×10^4 cells/well to 5.0×10^4 cells/well, and the cells were then incubated for 24 hours at 37° C. (production of a late posterior epiblast: step 1). • 2. On day 1, medium replacement was conducted using a medium prepared by adding 5 μM of CHIR99021, 1 ng/ml of BMP7 and 100 ng/ml of FGF2 to the same basal medium as above (production of a mesodermal-lineage primitive streak: step 2). • 3. On day 2, medium replacement was conducted using a medium prepared by adding 5 μM of CHIR99021, 1 ng/ml of BMP7, 100 ng/ml of FGF2 and 10 μM of A83-01 to the same basal medium as above (production of a mesodermal-lineage late primitive streak: step 3). • 4. On day 3, medium replacement was conducted using a medium prepared by adding 5 μM of CHIR99021, 100 ng/ml of FGF2, 1 ng/ml of BMP7, 10 ng/ml of activin A and 30 μM of Y-27632 to the same basal medium (production of a metanephric-lineage late primitive streak: step 4). • 5. On day 6, medium replacement was conducted using a medium prepared by adding 100 nM of retinoic acid, 200 ng/ml of FGF9 and 25 ng/ml of Noggin to the same basal medium (production of a late posterior intermediate mesoderm: step 5). • 6. On day 8, medium replacement was conducted using a medium prepared by adding 1 μM of CHIR99021 and 200 ng/ml FGF9 to the same basal medium (production of hNPC: step 6).

For `Cc1cnc(Nc2ccc(OCCN3CCCC3)cc2)nc1Nc1cccc(S(=O)(=O)NC(C)(C)C)c1` [TG101348], the “expression of both OSR1 and SIX2” value in experiment [1] and in experiment [2] was “maintained up until passage 3” each time. In addition, the renal organoid formation entry in experiment [3] and in experiment [4] was “formed” in each case. Moreover, the “cell growth (cell count)” value in experiment [5] is reported as “promoted more”. For the same compound, in experiment [6], the “cell growth (cumulative cell count)” value was “better promoted in all passages”.

Take “FGF2: fibroblast growth factor 2 (basic FGF)”: in experiment [7] (FGF2 concentration in step 4 reduced to 10 ng/mL or less), the “induction efficiency into hNPC” value is reported as “decreased”. The hNPC induction efficiency entry in experiment [7] (concentration of FGF2 in step 3 varied (100, 30, 10 ng/ml)) was “no effect”.

Turning to heparin, the hNPC induction efficiency result in experiment [7] (0.18 U/ml (1 μg/ml) heparin added with FGF2 in step 4) and in experiment [7] (0.18 U/ml (1 μg/ml) heparin added with FGF9 in step 5) was “no effect” in each case.
